≈ marks a conversion by molar mass, not a printed value.
What was measured:
[1] = system: bronchospasm by acetylquoline (Guinea pig); assay: Bronchospasmolytic activity according to Konzett-Rossler, acetylquoline bronchospasm; type: in vivo; conditions: Cavia porcellus, iv, irritant acetylquoline, read-out: Bronchospasmolysis ID50, acetylquoline
Experimental: (§1) test of intravenously administered preparations for bronchospasmolytic activity according to Konzett-Rossler.
(§2) Except for irrelevant modifications, the test arrangement used largely corresponded to the description given by H. Konzett and R. Rossler, Arch. exp. Path. Pharmakol. 195, 71 (1940)). Test animals were male white Guinea pigs having a weight of 400 to 500 g. They were anesthesized with hexobarbital and urethane. All preparations to be administered were diluted with phosphate buffer (pH = 7.4) and administered in a volume of 0.1 ml.
(§3) Physiological or pharmacological effects were registered by measuring the air volume in the lung when the maximum blowing pressure was kept constant and a constant volume was maintained by respiration above atmospheric pressure. Capacity modifications in the respiratory tract show themselves in an increase or decrease of the air volume absorbed by the lung under the given constant blowing pressure. To produce a heavy bronchospasm acetylquoline or histamine were injected by the intravenous route. The dosage unit of the irritant was chosen such that an about 70 to 80 % decrease of the absorption capacity of the lung was obtained. The substance to be examined was administered by the intravenous route in the V. jugularis. 30 seconds thereafter the already evaluated dosage unit of the irritant was injected once more. The medium inhibition dose was red off from the dose activity curve drawn either graphically or by means of regression analysis.

[2] = system: bronchospasm by histamine (Guinea pig); assay: Bronchospasmolytic activity according to Konzett-Rossler, histamine bronchospasm; type: in vivo; conditions: for ED50: Cavia porcellus, iv, Guinea pig, irritant histamine, read-out: Bronchospasmolysis ID50, Histamine
Experimental: as §1, §2, §3

[3] = system: unstriped musculature (isolated rat stomach); assay: Effect on the unstriped musculature (isolated rat stomach according to Vane); type: cell-based, rat (Wistar); conditions: for EC50: 37° C, activity relative to contraction after 600 ng/ml PGA2, Table 1, read-out: Action on the unstriped musculature (isolated rat stomach) ED50
Experimental: Effect on the unstriped musculature (isolated rat stomach according to Vane, Br. J. Pharmac. Chemother., 12 344 (1957)).
The test was carried out on Wistar rats of both sexes having a weight of 200 to 220 g. The animals were killed by a blow onto the neck, the stomach was rapidly taken out and put into a Petri dish containing a pre-heated cancer solution. The fundus which is easily to be distinguished from the pyloric part because of its grey color, was separated and opened longitudinally by a longitudinal cut. Transversal cuts in counter-direction to each other led to a stripe which could be hung into the organ bath. The organ bath contained the usual cancer solution which was maintained at a temperature of 37° C and which was risen in bubbles with a mixture of 95 % O2 and 5 % CO2. A writing lever charged with 1 g served to register on a kymograph the contractions produced by adding the substance to be examined to the organ bath. The test criterion was the contraction occurring after the addition of the substance to be examined. The degree of activity was determined by comparing the contraction occurring after 600 ng/ml PGA2. The values expressed in % with regard to the comparison preparation were used to draw a dose-activity-curve which allowed to determine the medium activity dose.
All substances were present as stock-solutions in absolute alcohol and were diluted to their final concentration with phosphate buffer (pH = 7.4).

[4] = system: blood pressure (cat); assay: Test for the effect on the blood circulation (hypotensive properties, Kannegiesser and Lee); type: in vivo
Experimental: Test for the effect on the blood circulation
The hypotensive properties were examined in accordance with the methods described by Kannegiesser and Lee, Nature 229, 498 (1971).
Test animals were cats of both sexes having a weight of 2.0 to 3.0 kg.
The animals were anesthesized with pentobarbital in an amount of 1.7 to 2.8 mg/ml in 0.9 % NaCl-solution as continuous infusion with 5 mg/kg/hour and pretreated with pentolinium (Ansolysen, May & Baker) with 10 mg/animal by the intraperitoneal route. The test substances were administered through the Vena jugularis. The blood pressure was measured in the A. carotis ext. directly and recorded by means of a Statham pressure sensor on a multi-channel recorder.
The maximum change of the systolic and diastolic blood pressure was measured in mm Hg.
All test preparations were present as stock solutions in absolute alcohol and were diluted to the end concentration immediately before the test beginning in phosphate buffer (pH = 7.4).

Structure (SMILES)	EC50 ([3]; isolated rat stomach) [mg/L]	ED50 [1] [µg/kg]	ED50 [2] [µg/kg]	Blood pressure (modifications in mm Hg), first value (systolic) ([4]; after 5 μ/kg i.v. (cat)) [mm Hg]	Blood pressure (modifications in mm Hg), second value (diastolic) ([4]; after 5 μ/kg i.v. (cat)) [mm Hg]	Blood pressure (modifications in mm Hg), one value printed (systolic and diastolic not separated) ([4]; after 5 μ/kg i.v. (cat)) [mm Hg]	ED50 in the isolated rat stomach ([3]; isolated rat stomach) [mg/L]	bronchodilating activity ([2]; in words, irritant not specified)	spasmogen activity ([3]; in words)	blood-pressure lowering activity ([4]; in words, compared with 15-α-hydroxy-9-oxo-13-trans-prostenoic acid)	Blood pressure (modifications in mm Hg), first value (systolic) ([4]; at 0.5 μg/kg i.v. (cat)) [mm Hg]	Blood pressure (modifications in mm Hg), second value (diastolic) ([4]; at 0.5 μg/kg i.v. (cat)) [mm Hg]
CCCCCC(O)/C=C/C1CCC(=O)C1CCCC(C)CCC(=O)O (mixture of isomers) [Example 6, rac. 15-α-Hydroxy-4-methyl-9-oxo-13-trans-prostenoic Acid]	0.5	0.5	0.9	-45	-50							
CCCCCC(O)C=C[C@H]1CCC(O)[C@@H]1CC=CCOCC(=O)O (mixture of isomers) [Example 29 A, rac. 9,15-dihydroxy-3-oxa-5,13-trans-prostadienic acid]							3.1 (≈ 9.11 µM)					
CCCCCC(O)/C=C/C1CCC(=O)C1CCC(C)CCCC(=O)O (mixture of isomers) [Example 5, rac. 15-α-Hydroxy-5-methyl-9-oxo-13-trans-prostenoic Acid]	0.2	0.4		-20	-30			good bronchodilating activity	good spasmogen activity	reduced as compared with 15-α-hydroxy-9-oxo-13-trans-prostenoic acid		

More lines, main results first:

EC50 ([3]; isolated rat stomach) [mg/L]	Structure (SMILES)	ED50 [1] [µg/kg]	ED50 [2] [µg/kg]	Blood pressure (modifications in mm Hg), first value (systolic) ([4]; after 5 μ/kg i.v. (cat)) [mm Hg]	Blood pressure (modifications in mm Hg), second value (diastolic) ([4]; after 5 μ/kg i.v. (cat)) [mm Hg]	Blood pressure (modifications in mm Hg), one value printed (systolic and diastolic not separated) ([4]; after 5 μ/kg i.v. (cat)) [mm Hg]	ED50 in the isolated rat stomach ([3]; isolated rat stomach) [mg/L]	bronchodilating activity ([2]; in words, irritant not specified)	spasmogen activity ([3]; in words)	blood-pressure lowering activity ([4]; in words, compared with 15-α-hydroxy-9-oxo-13-trans-prostenoic acid)	Blood pressure (modifications in mm Hg), first value (systolic) ([4]; at 0.5 μg/kg i.v. (cat)) [mm Hg]	Blood pressure (modifications in mm Hg), second value (diastolic) ([4]; at 0.5 μg/kg i.v. (cat)) [mm Hg]
1.3	CCCCCC(O)/C=C/C1CCC(=O)C1CCCCCC(C)C(=O)O (mixture of isomers) [Example 8, rac. 15-α-Hydroxy-2-methyl-9-oxo-13-trans-prostenoic Acid]	> 10				0						
0.1	CCCCCC(O)/C=C/C1CCC(=O)C1CCCCCCC(=O)O (mixture of isomers) [Example 4, rac. 15-α-Hydroxy-9-oxo-13-trans-prostenoic Acid]	0.1	0.1								-22	-27
1	CCCCCC(O)/C=C/C1CCC(=O)C1CCCCC(C)CC(=O)O (mixture of isomers) [Example 7, rac. 15-α-Hydroxy-3-methyl-9-oxo-13-trans-prostenoic Acid]	1	4	-10	-20							

Source: patent US4078083A, “Novel prostanoic acids” (Hoechst Aktiengesellschaft, priority 1973, dated 1978)
